Results from patent publication US6362164B1, “Combination of a somatostatin analogue and a rapamycin” (Novartis AG, priority 1996, dated 2002).

Columns and labels:
AR42J cells = test: In vitro AR42J cell growth assay (SRB staining, delta OD); type: cell-based, rat; design: Cell Growth (ΔOD): unit not given here; conditions: octreotide 1.2 nM, Compound B 12.0 nM, combination 1.2 + 12.0 nM; for Cell Growth (% of CONTROL) Observed: control = 100
[1] = system: AR42J (AR4-2J) rat pancreatic tumor cell line; test: In vivo AR42J tumor growth in nude mice; conditions: after 4 weeks; s.c. AR42J tumors in female nude mice; Compound B or rapamycin 5 mg/kg p.o., octreotide slow release 30 mg/kg s.c. single inj.; control 4020 (3 week value)
Method: Cultures are propagated in DMEM supplemented with 10% fetal calf serum (FCS) at 5% CO2. Cells are grown in the absence of antibiotics or antifungal agents. Female nude mice (nu/nu Balbc-A from Iffa Credo, Lyon, France) weighing 19-22 g, are kept in groups of 5 animals in macrolon cages (type III, 16×22×11 cm). The cages are placed in ventilated cabinets (Iffa Credo) that are maintained at 24±1° C. The animals have free access to drinking water and a pathogen-free rodent diet (Diet A, Kliba, Basel, Switzerland). To initiate tumors from cultured cells, AR42J cells are trypsinized and 10×10^6 tumor cells (in 0.2 ml) are injected subcutaneously (s.c.) into both flanks of nude mice. […] Control animals receive placebo. Animals are treated as indicated below for 3 weeks with single agents or the drug combination. The somatostatin analogue is given as a single injection of a slow release form at 30 mg/kg s.c. The size of the tumors is determined with a caliper. To calculate the tumor volume in ml, the equation “volume (ellipsoid)=length×depth×height×0.52” was used.
After 4 weeks, the following tumor sizes were determined.

Molecule	Cell Growth (% of CONTROL) Observed (AR42J cells) [%]	Tumor Volume [1] [mm^3]	Cell Growth (ΔOD) (AR42J cells; DMEM+2.5% FCS, control 664 ± 9)
CO[C@H]1C[C@@H]2CC[C@@H](C)[C@@](O)(O2)C(=O)C(=O)N2CCCC[C@H]2C(=O)O[C@H]([C@H](C)C[C@@H]2CC[C@@H](OCCO)[C@H](OC)C2)CC(=O)[C@H](C)/C=C(\C)[C@@H](O)[C@@H](OC)C(=O)[C@H](C)C[C@H](C)/C=C/C=C/C=C/1C [Compound B, 40-O-(2-hydroxy)ethyl-rapamycin]	63.3	3685	
Rapamycin		2748	
octreotide	59.8		397 ± 16
